# Several values for one entry are separate records, joined by “and”; a condition that tells them apart may be missing. Identical values can stand only once.
# Tested on: Dirofilaria immitis JYD strain (ivermectin-resistant)
# Experiment: Infection of NSG mice with ivermectin-resistant JYD strain D. immitis L3, treatment, recovery and count of worms
# Assay type: in vivo
# Conditions: for % Rec, Mean: group mean; for % Rec: individual mice
# [1] = 7823 1.0 mg/kg Days 1, 15, 30, 50 JYD Di L3 per NSG mouse, recovery Days 40-42, Table 20
# [2] = 7823 5.0 mg/kg Days 1, 15, 30, 50 JYD Di L3 per NSG mouse, recovery Days 40-42, Table 20
compound,measurement,setting,value
CC(C)C[C@H]1C(=O)O[C@H](C)C(=O)N(C)[C@@H](CC(C)(C)F)C(=O)O[C@H](Cc2ccc(OC(F)(F)F)cc2)C(=O)N(C)[C@@H](CC(C)C)C(=O)O[C@H](C)C(=O)N(C)[C@@H](CC(C)(C)F)C(=O)O[C@H](Cc2ccc(OC(F)(F)F)cc2)C(=O)N1C [compound 2677],"% Rec, Mean","2677 1 mg/kg Days 1, 15, 30, 50 JYD Di L3 per NSG mouse, recovery Days 41 and 42, Table 18",8%
same,% Rec,"2677 1 mg/kg Days 1, 15, 30, 50 JYD Di L3 per NSG mouse, recovery Days 41 and 42, Table 18, 1 mg/kg",6% and 4% (3×) and 2% and 18% and 16%
same,% Red,"in vivo, 1 mg/kg",% Red: 81%
same,"Survival, Mean","in vivo, 1 mg/kg",4
CC(C)C[C@H]1C(=O)O[C@H](C)C(=O)N(C)[C@@H](CC(C)(C)F)C(=O)O[C@H](Cc2ccc(C(F)(F)F)cc2)C(=O)N(C)[C@@H](CC(C)C)C(=O)O[C@H](C)C(=O)N(C)[C@@H](CC(C)(C)F)C(=O)O[C@H](Cc2ccc(C(F)(F)F)cc2)C(=O)N1C [compound 3615],% Red,"3615 1 mg/kg Days 1, 15, 30, 50 JYD Di L3 per NSG mouse, Table 18, vs Control",% Red: 40%
same,"% Rec, Mean","3615 1 mg/kg Days 1, 15, 30, 50 JYD Di L3 per NSG mouse, recovery Days 41 and 42, Table 18",26%
same,% Rec,"3615 1 mg/kg Days 1, 15, 30, 50 JYD Di L3 per NSG mouse, recovery Days 41 and 42, Table 18, 1 mg/kg",24% (2×) and 26% and 30% and 28% and 36% and 16%
same,"Survival, Mean","in vivo, 1 mg/kg",13
C[C@H]1OC(=O)[C@H](CC(C)(C)C)N(C)C(=O)[C@@H](Cc2ccc(OC(F)(F)F)cc2)OC(=O)[C@H](CC(C)(C)F)N(C)C(=O)[C@@H](C)OC(=O)[C@H](CC(C)(C)C)N(C)C(=O)[C@@H](Cc2ccc(OC(F)(F)F)cc2)OC(=O)[C@H](CC(C)(C)F)N(C)C1=O [compound 5010],% Red,"5010 1 mg/kg Days 1, 15, 30, 50 JYD Di L3 per NSG mouse, Table 18, vs Control",% Red: 33%
same,"% Rec, Mean","5010 1 mg/kg Days 1, 15, 30, 50 JYD Di L3 per NSG mouse, recovery Days 41 and 42, Table 18",29%
same,% Rec,"5010 1 mg/kg Days 1, 15, 30, 50 JYD Di L3 per NSG mouse, recovery Days 41 and 42, Table 18, 1 mg/kg",24% (2×) and 36% and 14% and 34% and 30% and 38%
same,"Survival, Mean","in vivo, 1 mg/kg",14
C[C@H]1OC(=O)[C@H](CC2CC2)N(C)C(=O)[C@@H](Cc2ccc(C(C)(C)C)cc2)OC(=O)[C@H](CC(C)(C)F)N(C)C(=O)[C@@H](C)OC(=O)[C@H](CC2CC2)N(C)C(=O)[C@@H](Cc2ccc(C(C)(C)C)cc2)OC(=O)[C@H](CC(C)(C)F)N(C)C1=O [compound 7823],% Red,"7823 0.1 mg/kg Days 1, 15, 30, 50 JYD Di L3 per NSG mouse, Table 20, vs Control",% Red: 83%
same,"% Rec, Mean","7823 0.1 mg/kg Days 1, 15, 30, 50 JYD Di L3 per NSG mouse, recovery Days 40-42, Table 20",4%
same,% Rec,"7823 0.1 mg/kg Days 1, 15, 30, 50 JYD Di L3 per NSG mouse, recovery Days 40-42, Table 20, 0.1 mg/kg",6% (2×) and 0% and 8% and 2%
same,% Red,"7823 0.25 mg/kg Days 1, 15, 30, 50 JYD Di L3 per NSG mouse, Table 20, vs Control",% Red: 91%
same,"% Rec, Mean","7823 0.25 mg/kg Days 1, 15, 30, 50 JYD Di L3 per NSG mouse, recovery Days 40-42, Table 20",2%
same,% Rec,"7823 0.25 mg/kg Days 1, 15, 30, 50 JYD Di L3 per NSG mouse, recovery Days 40-42, Table 20, 0.25 mg/kg",4% (2×) and 0% (3×)
same,% Red,"7823 0.5 mg/kg Days 1, 15, 30, 50 JYD Di L3 per NSG mouse, Table 20, vs Control",% Red: 87%
same,"% Rec, Mean","7823 0.5 mg/kg Days 1, 15, 30, 50 JYD Di L3 per NSG mouse, recovery Days 40-42, Table 20",3%
same,% Rec,"7823 0.5 mg/kg Days 1, 15, 30, 50 JYD Di L3 per NSG mouse, recovery Days 40-42, Table 20, 0.5 mg/kg",0% (2×) and 8% and 4% and 2%
same,% Red,"7823 1 mg/kg Days 1, 15, 30, 50 JYD Di L3 per NSG mouse, Table 18, vs Control",% Red: 98%
same,% Red,"7823 1.0 mg/kg Days 1, 15, 30, 50 JYD Di L3 per NSG mouse, Table 20, vs Control",% Red: 100%
same,"% Rec, Mean",[1],0%
same,% Rec,[1],0%
same,"% Rec, Mean","7823 1 mg/kg Days 1, 15, 30, 50 JYD Di L3 per NSG mouse, recovery Days 41 and 42, Table 18",1%
same,% Rec,"7823 1 mg/kg Days 1, 15, 30, 50 JYD Di L3 per NSG mouse, recovery Days 41 and 42, Table 18, 1 mg/kg",2% (2×) and 0% (4×) and 4%
same,% Red,"7823 5.0 mg/kg Days 1, 15, 30, 50 JYD Di L3 per NSG mouse, Table 20, vs Control",% Red: 100%
same,"% Rec, Mean",[2],0%
same,% Rec,[2],0%
same,"Survival, Mean","in vivo, 0.1 mg/kg",2
same,"Survival, Mean","in vivo, 0.25 mg/kg",1
same,"Survival, Mean","in vivo, 0.5 mg/kg",1
same,Survival,"in vivo, 5 mg/kg",0
same,"Survival, Mean","in vivo, 5 mg/kg",0
CC(C)C[C@H]1C(=O)O[C@H](C)C(=O)N(C)[C@@H](CC(C)(C)F)C(=O)O[C@H](Cc2ccc(C3CCOCC3)cc2)C(=O)N(C)[C@@H](CC(C)C)C(=O)O[C@H](C)C(=O)N(C)[C@@H](CC(C)(C)F)C(=O)O[C@H](Cc2ccc(C3CCOCC3)cc2)C(=O)N1C [compound 8800],% Red,"8800 1 mg/kg Days 1, 15, 30, 50 JYD Di L3 per NSG mouse, Table 18, vs Control",% Red: 67%
same,"% Rec, Mean","8800 1 mg/kg Days 1, 15, 30, 50 JYD Di L3 per NSG mouse, recovery Days 41 and 42, Table 18",14%
same,% Rec,"8800 1 mg/kg Days 1, 15, 30, 50 JYD Di L3 per NSG mouse, recovery Days 41 and 42, Table 18, 1 mg/kg",12% (2×) and 16% and 8% and 4% and 26% and 18%
same,"Survival, Mean","in vivo, 1 mg/kg",7

# Reference: US20200011856A1, “Method for Determining the Effectiveness of Treatment for the Prevention of Heartworm Disease” (priority 2017, published 2020)
